Blank lines part the entries; values can stand above or below the compound they belong to.
Key:
Test in all cases: stopped-flow CO2 hydration assay
Type in all cases: biochemical
[1] = target: T1, hCA II (Homo sapiens, UniProt P00918); conditions: read-out: KI (nM)* / CA II (converted)
T1 construct: gene CA2; recombinant, obtained in-house
Excerpt: stopped-flow CO2 hydration assay on hCA II

[2] = target: T2, hCA IX (Homo sapiens, UniProt Q16790); conditions: read-out: KI (nM)* / CA IX
T2 construct: gene CA9; recombinant, obtained in-house
Excerpt: stopped-flow CO2 hydration assay on hCA IX

[3] = target: T3, hCA I (Homo sapiens, UniProt P00915); conditions: read-out: KI (nM)* / CA I (converted)
T3 construct: gene CA1; recombinant, obtained in-house
T3 sequence (P00915 2-261): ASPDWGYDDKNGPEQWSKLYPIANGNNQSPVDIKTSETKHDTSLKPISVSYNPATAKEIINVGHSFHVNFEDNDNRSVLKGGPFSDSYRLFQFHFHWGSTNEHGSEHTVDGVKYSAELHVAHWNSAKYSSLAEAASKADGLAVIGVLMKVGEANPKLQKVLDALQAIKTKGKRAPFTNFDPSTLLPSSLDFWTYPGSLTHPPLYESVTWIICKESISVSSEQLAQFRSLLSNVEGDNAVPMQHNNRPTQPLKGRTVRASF
Excerpt: stopped-flow CO2 hydration assay on hCA I

[4] = target: T4, hCA XII (Homo sapiens, UniProt O43570); conditions: read-out: KI (nM)* / CA XII
T4 construct: gene CA12; recombinant, obtained in-house
T4 sequence (O43570 25-354 limits assumed): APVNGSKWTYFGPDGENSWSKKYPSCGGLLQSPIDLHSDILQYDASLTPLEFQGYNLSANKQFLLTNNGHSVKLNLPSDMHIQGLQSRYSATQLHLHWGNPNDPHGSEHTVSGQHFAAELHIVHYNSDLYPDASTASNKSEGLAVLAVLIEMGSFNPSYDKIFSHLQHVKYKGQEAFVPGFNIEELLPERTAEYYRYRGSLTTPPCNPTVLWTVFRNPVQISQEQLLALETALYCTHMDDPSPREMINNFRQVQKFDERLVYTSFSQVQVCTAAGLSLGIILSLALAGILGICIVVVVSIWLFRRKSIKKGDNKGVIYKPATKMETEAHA
Excerpt: stopped-flow CO2 hydration assay on hCA XII

SMILES: O=C1CN(N=Cc2ccccc2)C(=O)N1 [compound 2, 1-(Benzylideneamino)-imidazolidine-2,4-dione]
Ki [1]: 900 nM
Ki [2]: 3500 nM
Ki [3]: 39600 nM
Ki [4]: 5600 nM

SMILES: COc1ccc(C=NN2CC(=O)NC2=O)cc1 [compound 3, 1-((4-Methoxybenzylidene)amino)imidazolidine-2,4-dione]
Ki [1]: 6400 nM
Ki [2]: 1200 nM
Ki [3]: 57600 nM
Ki [4]: 4700 nM

SMILES: O=C1CN(N=Cc2ccc([N+](=O)[O-])cc2)C(=O)N1 [compound 4, 1-((4-Nitrobenzylidene)amino)imidazolidine-2,4-dione]
Ki [1]: 11100 nM
Ki [2]: 7400 nM
Ki [3]: > 100000 nM
Ki [4]: 2800 nM

SMILES: COC(=O)c1ccc(C=NN2CC(=O)NC2=O)cc1 [compound 5, Methyl 4-(((2,4-dioxoimidazolidin-1-yl)imino)methyl)benzoate]
Ki [1]: 8300 nM
Ki [2]: 4900 nM
Ki [3]: > 100000 nM
Ki [4]: 930 nM

SMILES: O=C1CN(N=CCCCC=NN2CC(=O)NC2=O)C(=O)N1 [compound 6, 1,1’-((Pentane-1,5-diylidene)bis(azaneylylidene))bis(imidazolidine-2,4-dione)]
Ki [1]: 4000 nM
Ki [2]: 1100 nM
Ki [3]: 19100 nM
Ki [4]: 160 nM

SMILES: O=C1CN(N=Cc2ccc(OCc3ccccc3)cc2)C(=O)N1 [compound 8, 1-((4-(Benzyloxy)benzylidene)amino)imidazolidine-2,4-dione]
Ki [1]: 540 nM
Ki [2]: 350 nM
Ki [3]: > 100000 nM
Ki [4]: 910 nM

SMILES: O=C1CN(N=Cc2ccc(O)cc2O)C(=O)N1 [compound 12, 1-((2,4-Dihydroxybenzylidene)amino)imidazolidine-2,4-dione]
Ki [1]: 59900 nM
Ki [2]: 5800 nM
Ki [3]: > 100000 nM
Ki [4]: 150 nM

SMILES: O=C1CN(N=Cc2ccc(B(O)O)cc2)C(=O)N1 [compound 13]
Ki [1]: 14200 nM
Ki [2]: 7300 nM
Ki [3]: 90700 nM
Ki [4]: 230 nM

SMILES: O=C1CN(N=Cc2ccccn2)C(=O)N1 [compound 14, 1-((Pyridin-2-ylmethylene)amino)imidazolidine-2,4-dione]
Ki [1]: 4200 nM
Ki [2]: 4500 nM
Ki [3]: 51800 nM
Ki [4]: 1300 nM

SMILES: O=C1CN(N=Cc2cccnc2)C(=O)N1 [compound 15, 1-((Pyridin-3-ylmethylene)amino)imidazolidine-2,4-dione]
Ki [1]: 620 nM
Ki [2]: 2300 nM
Ki [3]: 45600 nM
Ki [4]: 3200 nM

SMILES: O=C1CN(N=Cc2ccncc2)C(=O)N1 [compound 16, 1-((Pyridin-4-ylmethylene)amino)imidazolidine-2,4-dione]
Ki [1]: 3300 nM
Ki [2]: 1600 nM
Ki [3]: 26600 nM
Ki [4]: 810 nM

Next, values leading:

Ki [1]: 9600 nM
Ki [2]: 260 nM
Ki [3]: > 100000 nM
Ki [4]: 57 nM
SMILES: O=C1CN(/N=C/C=C/c2ccc([N+](=O)[O-])o2)C(=O)N1 [Furagin]

Ki [1]: 710 nM
Ki [2]: 850 nM
Ki [3]: 16800 nM
Ki [4]: 1700 nM
SMILES: O=C1CN(N=Cc2ccoc2)C(=O)N1 [compound 7, 1-((Furan-3-ylmethylene)amino)imidazolidine-2,4-dione]

Ki [1]: 23600 nM
Ki [2]: 810 nM
Ki [3]: 45900 nM
Ki [4]: 440 nM
SMILES: CCOC(=O)/C=C/C=NN1CC(=O)NC1=O [compound 9, Ethyl (2E)-4-((2,4-dioxoimidazolidin-1-yl)imino)but-2-enoate]

Ki [1]: 16500 nM
Ki [2]: 2900 nM
Ki [3]: 28800 nM
Ki [4]: 880 nM
SMILES: CC(C)=CC=NN1CC(=O)NC1=O [compound 10, 1-((3-Methylbut-2-en-1-ylidene)amino)imidazolidine-2,4-dione]

Ki [1]: 3100 nM
Ki [2]: 400 nM
Ki [3]: > 100000 nM
Ki [4]: 360 nM
SMILES: COc1ccc(/C=C/C=NN2CC(=O)NC2=O)cc1 [compound 11, 1-(((2e)-3–(4-methoxyphenyl)allylidene)amino)imidazolidine-2,4-dione]

Ki [1]: 12400 nM
Ki [2]: 560 nM
Ki [3]: 9600 nM
Ki [4]: 350 nM
SMILES: O=C1CN(N=Cc2cnc[nH]2)C(=O)N1 [compound 17, 1-(((1 h-Imidazol-5-yl)methylene)amino)imidazolidine-2,4-dione]

— paper PMC7178874, “The antibiotic furagin and its derivatives are isoform-selective human carbonic anhydrase inhibitors” (Journal of Enzyme Inhibition and Medicinal Chemistry, 2020)
